Experimental data published in ChEMBL document CHEMBL1150949, “Antimalarial principles from Artemisia indica” (J Nat Prod, 1998).

Test system: Plasmodium falciparum
Assay: Antimalarial activity against Plasmodium falciparum K1 by [3H]hypoxanthine uptake
Type: functional, organism-based

| EC50 | SMILES |
| --- | --- |
| 100 µM | Oc1ccc(-c2cc3cc4c(cc3o2)OCO4)c(O)c1 |
| 165 µM | Oc1ccc2c(c1)OC[C@@H]1c3cc4c(cc3O[C@H]21)OCO4 [(+)-MAACKIAIN] |
| 4.2 µg/mL | COc1c(Cc2ccccc2O)c(O)c(Cc2ccccc2O)c(O)c1C(=O)CCc1ccccc1 [DIUVARETIN] |
| 10.8 µM | C=C(C)[C@H](CC=C(C)C)Cc1c(O)cc(O)c2c1O[C@H](c1c(O)cccc1O)CC2=O [EXIGUAFLAVONE A] |
| 16 µM | C=C(C)[C@H](CC=C(C)C)Cc1c(OC)cc(O)c2c1O[C@H](c1c(O)cccc1O)CC2=O [EXIGUAFLAVONE B] |
| 3.49 µg/mL | COc1cc(O)c(Cc2ccccc2O)c(O)c1C(=O)CCc1ccccc1 [UVARETIN] |
